Experimental findings from patent US4698352A, “4-oxo-1,4-dihydronicotinic acid derivatives, salts thereof, and antibacterial agents containing the same” (Toyama Chemical Co., Ltd., priority 1982, dated 1987) are described below.

Common to all, as to assay: Antibacterial activity (MIC), agar dilution
Common to all, as to type: cell-based
Background: Agar dilution tests growth on a series of plates holding different concentrations.

One test concerns Ps. aeruginosa GN3379*. The following applies: Pseudomonas aeruginosa, 20 h; Ps. aeruginosa GN3379, penicillinase-producing; 10^6 cells per ml; read-out: MIC. The text has this: (§1) The amount of bacteria inoculated was 10^4 cells per plate (10^6 cells per ml).
(§2) * Penicillinase-producing bacteria

The test system of another test is St. aureus F-137*. The note with it: Staphylococcus aureus, 20 h, St. aureus F-137, penicillinase-producing; 10^6 cells per ml; read-out: MIC.
Text: as §1, §2

The subject of the next test is Kl. pneumoniae Y-4*. The note with it: Klebsiella pneumoniae, 20 h, Kl. pneumoniae Y-4, penicillinase-producing; 10^6 cells per ml; read-out: MIC.
Text: as §1, §2

A further test relates to E. coli TK-3*. The note with it: Escherichia coli, 20 h.
Text: as §1, §2

The next test deals with Ps. aeruginosa GN918**. The following applies: Pseudomonas aeruginosa, Ps. aeruginosa GN918, cephalospolinase-producing, 10^6 cells per ml.
Text: as §1
(§3) ** Cephalospolinase-producing bacteria

The test system of the next test is E. coli GN5482**. The note with it: Escherichia coli, 20 h; E. coli GN5482, cephalospolinase-producing; 10^6 cells per ml; read-out: MIC.
Text: as §1, §3

In another test the test system is Pro. vulgaris GN76**. The following applies: Proteus vulgaris.
Text: as §1, §3

The next test concerns Pro. mirabilis T-111. The note with it: Proteus mirabilis, T111, 10^6 cells per ml, 37° C., 20 hours, read-out: MIC.
Text: as §1

Another test relates to Aci. antitratus A-6. The following applies: 20 h, Aci. antitratus A-6; 10^6 cells per ml; 37° C., 20 hours; read-out: MIC.
Text: as §1

The next test concerns Ps. aeruginosa S-68. The note with it: Pseudomonas aeruginosa, S68; Ps. aeruginosa S-68; 10^6 cells per ml; 37° C., 20 hours; read-out: MIC.
Text: as §1

For a further test, the system named is Kl. pneumoniae Y-41. The note with it: Klebsiella pneumoniae, Y41, 10^6 cells per ml, 37° C., 20 hours, read-out: MIC.
Text: as §1

Another test deals with Ps. aeruginosa IFO3445. The note with it: Pseudomonas aeruginosa; Ps. aeruginosa IFO3445; 10^6 cells per ml; 37° C., 20 hours; read-out: MIC.
Text: as §1

Another test concerns Pro. morganii T-216. The note with it: Morganella morganii, 37° C.
Text: as §1

A further test has as its system Kl. pneumoniae Y-50. The note with it: Klebsiella pneumoniae, Y50, 20 h, 10^6 cells per ml, 37° C., read-out: MIC.
Text: as §1

In the next test the test system is E. coli TK-111. The note with it: Escherichia coli, TK111, 20 h, E. coli TK-111; 10^6 cells per ml; 37° C., 20 hours; read-out: MIC.
Text: as §1

In another test the test system is E. coli NIHJ JC-2. The following applies: Escherichia coli, NIHJJC2, 20 h, E. coli NIHJ JC-2; 10^6 cells per ml; 37° C., 20 hours; read-out: MIC.
Text: as §1

In another test the test system is Pro. vulgaris GN3027. The note with it: Proteus vulgaris, GN3027, 20 h, Pro. vulgaris GN3027; 10^6 cells per ml; 37° C., 20 hours; read-out: MIC.
Text: as §1

A further test concerns St. aureus FDA209P. The note with it: Staphylococcus aureus, FDA209P, 20 h, St. aureus FDA209P; 10^6 cells per ml; 37° C., 20 hours; read-out: MIC.
Text: as §1

The next test deals with Ent. cloacae IID977. The following applies: Enterobacter cloacae, IID977, 20 h.
Text: as §1

Setting [1] is: E. coli TK-3, penicillinase-producing, 10^6 cells per ml, read-out: MIC.
Where [2] appears, read: 20 h, Pro. vulgaris GN76, cephalospolinase-producing, 10^6 cells per ml, read-out: MIC.
Where [3] appears, read: T216, 10^6 cells per ml, 20 hours, read-out: MIC.
[4] abbreviates: Ent. cloacae IID977, 10^6 cells per ml, 37° C., 20 hours, read-out: MIC.

In brackets after ≈: the same amount, converted by molar mass. Read-outs that look alike come from different tables or passages of the source. A value given as a limit tells only on which side of the number the result lay.

For orientation: MIC means the least concentration at which growth counts as inhibited. As to `Cc1ccc(-c2ccc(-c3cc(=O)c(C(=O)O)cn3-c3ccc(O)cc3)cc2)s1`, the MIC with Ps. aeruginosa GN3379* was 6.25 µg/mL (≈ 15.5 µM); in the test on St. aureus F-137*, at most 0.05 µg/mL; in the test with Kl. pneumoniae Y-4*, 1.56 µg/mL (≈ 3.87 µM); in the test on E. coli TK-3* (setting [1]), 0.39 µg/mL (≈ 0.967 µM); with Ps. aeruginosa GN918** (GN918, 20 h), 1.56 µg/mL (≈ 3.87 µM); with E. coli GN5482**, at most 0.05 µg/mL. Besides, the minimum inhibitory concentration (MIC) in the test on Pro. vulgaris GN76** (setting [2]) is 0.39 µg/mL (≈ 0.967 µM); with Pro. mirabilis T-111, 0.39 µg/mL (≈ 0.967 µM); in the test with Aci. antitratus A-6, at most 0.05 µg/mL; in the test on Ps. aeruginosa S-68 it was 3.13 µg/mL (≈ 7.76 µM); in the test on Kl. pneumoniae Y-41 it was 1.56 µg/mL (≈ 3.87 µM); in the test with Ps. aeruginosa IFO3445, 6.25 µg/mL (≈ 15.5 µM). In addition, the MIC was 0.78 µg/mL (≈ 1.93 µM) in the test with Pro. morganii T-216 (setting [3]); 0.78 µg/mL (≈ 1.93 µM) in the test on Kl. pneumoniae Y-50; 0.1 µg/mL (≈ 0.248 µM) with E. coli TK-111; 0.2 µg/mL (≈ 0.496 µM) in the test with E. coli NIHJ JC-2; 0.1 µg/mL (≈ 0.248 µM) in the test with Pro. vulgaris GN3027; at most 0.05 µg/mL in the test with St. aureus FDA209P. In the test on Ent. cloacae IID977 (setting [4]), the MIC was found to be 0.78 µg/mL (≈ 1.93 µM).
In the case of `O=C(O)c1cn(-c2ccc(O)cc2)c(-c2ccc(-n3cccn3)cc2)cc1=O`, the minimum inhibitory concentration (MIC) with Ps. aeruginosa GN3379* was 6.25 µg/mL (≈ 16.7 µM); with St. aureus F-137*, 0.39 µg/mL (≈ 1.04 µM); in the test with Kl. pneumoniae Y-4* it was 0.78 µg/mL (≈ 2.09 µM); with E. coli TK-3* (setting [1]) it was 0.2 µg/mL (≈ 0.536 µM); with Ps. aeruginosa GN918** (20 h, read-out: MIC) it was 3.13 µg/mL (≈ 8.38 µM); in the test on E. coli GN5482**, at most 0.05 µg/mL. Besides, the minimal inhibitory concentration (MIC) with Pro. vulgaris GN76** (setting [2]) was 1.56 µg/mL (≈ 4.18 µM); in the test on Pro. mirabilis T-111, 3.13 µg/mL (≈ 8.38 µM); with Aci. antitratus A-6 it was 0.78 µg/mL (≈ 2.09 µM); in the test with Ps. aeruginosa S-68 it was 6.25 µg/mL (≈ 16.7 µM); in the test on Kl. pneumoniae Y-41 it was 0.78 µg/mL (≈ 2.09 µM); in the test on Ps. aeruginosa IFO3445, 6.25 µg/mL (≈ 16.7 µM). Moreover, the minimal inhibitory concentration (MIC) is 1.56 µg/mL (≈ 4.18 µM) in the test on Pro. morganii T-216 (setting [3]); 0.2 µg/mL (≈ 0.536 µM) in the test with Kl. pneumoniae Y-50; at most 0.05 µg/mL in the test on E. coli TK-111; 0.1 µg/mL (≈ 0.268 µM) with E. coli NIHJ JC-2; 0.39 µg/mL (≈ 1.04 µM) in the test with Pro. vulgaris GN3027; 0.39 µg/mL (≈ 1.04 µM) in the test on St. aureus FDA209P. In the test on Ent. cloacae IID977 (setting [4]), the MIC came out at 0.2 µg/mL (≈ 0.536 µM).
Regarding `CN(C)c1ccc(-c2cc(=O)c(C(=O)O)cn2-c2ccccc2F)cc1`, the minimal inhibitory concentration (MIC) is over 100 µg/mL in the test with Ps. aeruginosa GN3379*; 1.56 µg/mL (≈ 4.43 µM) in the test on St. aureus F-137*; 25 µg/mL (≈ 70.9 µM) in the test on Kl. pneumoniae Y-4*; 3.13 µg/mL (≈ 8.88 µM) in the test on E. coli TK-3*; over 100 µg/mL in the test with Ps. aeruginosa GN918** (20 h, read-out: MIC); 0.39 µg/mL (≈ 1.11 µM) with E. coli GN5482**. In addition, the minimum inhibitory concentration (MIC) with Pro. vulgaris GN76** (GN76, 20 h) is 3.13 µg/mL (≈ 8.88 µM); with Pro. mirabilis T-111, 25 µg/mL (≈ 70.9 µM); with Aci. antitratus A-6, 1.56 µg/mL (≈ 4.43 µM); in the test on Ps. aeruginosa S-68, 25 µg/mL (≈ 70.9 µM); with Kl. pneumoniae Y-41 it was 6.25 µg/mL (≈ 17.7 µM); in the test on Ps. aeruginosa IFO3445 it was over 100 µg/mL. Also, the MIC against Pro. morganii T-216 (T216, 20 h, 10^6 cells per ml) worked out at 6.25 µg/mL (≈ 17.7 µM); with Kl. pneumoniae Y-50 it was 3.13 µg/mL (≈ 8.88 µM); in the test on E. coli TK-111 it was 0.78 µg/mL (≈ 2.21 µM); in the test on E. coli NIHJ JC-2 it was 1.56 µg/mL (≈ 4.43 µM); in the test on Pro. vulgaris GN3027 it was 0.78 µg/mL (≈ 2.21 µM); in the test on St. aureus FDA209P it was 1.56 µg/mL (≈ 4.43 µM). In addition, the lowest concentration to inhibit growth in the test with Ent. cloacae IID977 (MIC) was 6.25 µg/mL (≈ 17.7 µM).
For `Cc1nc(-c2ccc(-c3cc(=O)c(C(=O)O)cn3-c3ccc(O)cc3C)cc2)cs1`, the minimal inhibitory concentration (MIC) is 6.25 µg/mL (≈ 14.9 µM) with Ps. aeruginosa GN3379*; at most 0.05 µg/mL with St. aureus F-137*; 1.56 µg/mL (≈ 3.73 µM) in the test on Kl. pneumoniae Y-4*; 0.39 µg/mL (≈ 0.932 µM) in the test with E. coli TK-3* (setting [1]); 0.39 µg/mL (≈ 0.932 µM) in the test on Ps. aeruginosa GN918** (20 h, read-out: MIC); at most 0.05 µg/mL in the test with E. coli GN5482**. The MIC in the test with Pro. vulgaris GN76** (setting [2]) was 0.39 µg/mL (≈ 0.932 µM); in the test with Pro. mirabilis T-111 it was 0.78 µg/mL (≈ 1.86 µM); in the test on Aci. antitratus A-6, at most 0.05 µg/mL; in the test on Ps. aeruginosa S-68, 3.13 µg/mL (≈ 7.48 µM); in the test on Kl. pneumoniae Y-41 it was 1.56 µg/mL (≈ 3.73 µM); in the test with Ps. aeruginosa IFO3445, 3.13 µg/mL (≈ 7.48 µM). Besides, the MIC is 1.56 µg/mL (≈ 3.73 µM) with Pro. morganii T-216 (T216, 20 h, 10^6 cells per ml); 0.2 µg/mL (≈ 0.478 µM) with Kl. pneumoniae Y-50; at most 0.05 µg/mL in the test on E. coli TK-111; 0.1 µg/mL (≈ 0.239 µM) in the test on E. coli NIHJ JC-2; 0.39 µg/mL (≈ 0.932 µM) in the test with Pro. vulgaris GN3027; at most 0.05 µg/mL in the test with St. aureus FDA209P. Besides, the MIC in the test on Ent. cloacae IID977 (setting [4]) stood at 0.39 µg/mL (≈ 0.932 µM).
